The values that follow come from PubChem BioAssay (NCI).

Some test systems named below: COLO 205 colon; SNB-75 CNS; HCT-116 colon; KM12 colon; HS 578T breast; HOP-62 NSCLC; NCI-H226 lung; U251 CNS; CAKI-1 renal; HL-60(TB) leukemia.
Common to all, as to test: NCI tumour cell line growth inhibition, 48 h

Each structure is given as a SMILES string.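 The compound was tested at five concentrations on cells cultured in 96-well plates, with a 48-hour exposure period. GI50 = concentration required for 50% inhibition of growth. TGI marks complete inhibition of growth.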

For the molecule `CC(=O)CC(O)(C(F)(F)Cl)C(F)(Cl)Cl` (stereo not given), the TGI in the assay on COLO 205 colon, in the assay on SNB-75 CNS, in the assay on HCT-116 colon, in the assay with KM12 colon, with HS 578T breast and with HOP-62 NSCLC was > 10 µM in each case. Further, the TGI in the assay with NCI-H226 lung, in the assay with U251 CNS, in the assay on CAKI-1 renal and in the assay on HL-60(TB) leukemia was > 10 µM each time.
As to `O=C(Cn1c(=O)oc2ccccc21)N(c1ccccc1)c1ccccc1`, the TGI in the assay with COLO 205 colon is > 100 µM; with SNB-75 CNS it was 71 µM; in the assay on HCT-116 colon, > 100 µM; in the assay with KM12 colon, > 100 µM; with HS 578T breast, > 100 µM; in the assay with HOP-62 NSCLC it was > 100 µM. Also, the TGI with NCI-H226 lung, in the assay with U251 CNS, in the assay with CAKI-1 renal and with HL-60(TB) leukemia was > 100 µM in each case.
Turning to `C/C(=C\COP(=O)(O)OP(=O)(O)O)CC/C=C(\C)CNc1c(F)c(F)c(F)c(F)c1F`, the TGI with COLO 205 colon was > 100 µM; with SNB-75 CNS, > 31.6 µM; in the assay with HCT-116 colon, > 100 µM; in the assay with KM12 colon, > 100 µM; in the assay with HS 578T breast, > 100 µM; in the assay on HOP-62 NSCLC, > 100 µM. Moreover, the TGI with NCI-H226 lung, in the assay on U251 CNS, with CAKI-1 renal and in the assay on HL-60(TB) leukemia was > 100 µM each time.
Take `Clc1ccc(Cc2nc3cc(Cl)c(Cl)cc3n2CC2CCCN3CCCCC23)cc1` (stereo not given): the TGI is 22.3 µM with COLO 205 colon; 21.6 µM in the assay with SNB-75 CNS; 21.8 µM with HCT-116 colon; 40 µM in the assay on KM12 colon; 26.5 µM in the assay with HS 578T breast; 40.8 µM in the assay with HOP-62 NSCLC. Besides, the TGI was found to be 38 µM in the assay on NCI-H226 lung, 20.8 µM in the assay with U251 CNS, 34.1 µM with CAKI-1 renal and 25.4 µM in the assay with HL-60(TB) leukemia.
As for `N#CC1=C(N)OC2=C(CCCc3ccc([N+](=O)[O-])cc32)C1c1ccc(Cl)cc1` (stereo not given), the TGI in the assay with COLO 205 colon was > 100 µM; in the assay on SNB-75 CNS, > 100 µM; in the assay with HCT-116 colon, 12.5 µM; in the assay with KM12 colon, > 100 µM; with HS 578T breast it was 88.8 µM; in the assay with HOP-62 NSCLC, > 100 µM. Also, the TGI in the assay with NCI-H226 lung is 76.3 µM; in the assay on U251 CNS, 28 µM; in the assay on CAKI-1 renal, > 100 µM; in the assay on HL-60(TB) leukemia it was 7.26 µM.
For the molecule `C#C[C@]1(O)CC[C@H]2[C@@H]3CCC4=C/C(=N/OC(=O)c5cccc6cc7ccccc7nc56)CC[C@@H]4[C@H]3CC[C@@]21CC`, the TGI in the assay with COLO 205 colon, with SNB-75 CNS, with HCT-116 colon, in the assay with KM12 colon, with HS 578T breast and with HOP-62 NSCLC was > 100 µM in each case. Further, the TGI with NCI-H226 lung, with U251 CNS, with CAKI-1 renal and with HL-60(TB) leukemia was > 100 µM throughout.
As for `CCOC(=O)c1cccc(N=NNc2cccc(C(=O)OCC)c2)c1`, the TGI in the assay on COLO 205 colon is > 100 µM; in the assay on SNB-75 CNS it was 36.9 µM; with HCT-116 colon, > 100 µM; with KM12 colon, > 100 µM; with HS 578T breast, 77.3 µM; in the assay on HOP-62 NSCLC it was 32.4 µM. In addition, the TGI in the assay with NCI-H226 lung is > 100 µM; with U251 CNS, 46.6 µM; in the assay on CAKI-1 renal, > 100 µM; with HL-60(TB) leukemia it was > 100 µM.
Regarding `C=CCCCCCCCCCOC1C=CC(O)C(CO)O1` (stereo not given), the TGI in the assay on COLO 205 colon was > 100 µM; in the assay with SNB-75 CNS it was > 100 µM; with HCT-116 colon, > 100 µM; with KM12 colon, 85.1 µM; with HS 578T breast, > 100 µM; with HOP-62 NSCLC it was > 100 µM. The TGI with NCI-H226 lung was > 100 µM; in the assay on U251 CNS it was > 100 µM; in the assay with CAKI-1 renal, > 100 µM; in the assay on HL-60(TB) leukemia it was 65.5 µM.
As to `COc1ccc(/C=N/n2c(-c3ccccc3)n[nH]c2=O)c(OC)c1`, the TGI is > 100 µM in the assay on COLO 205 colon; > 73.2 µM in the assay with SNB-75 CNS; > 100 µM in the assay on HCT-116 colon; > 100 µM in the assay on KM12 colon; 80 µM in the assay with HS 578T breast; > 68.3 µM in the assay on HOP-62 NSCLC. Also, the TGI in the assay with NCI-H226 lung, in the assay with U251 CNS, with CAKI-1 renal and with HL-60(TB) leukemia was > 100 µM each time.
For `Clc1ccc(Cc2nc3cc4ccccc4cc3[nH]2)cc1Cl`, the TGI in the assay with COLO 205 colon is > 100 µM; in the assay with SNB-75 CNS, 44.5 µM; with HCT-116 colon, > 100 µM; in the assay with KM12 colon it was 45.9 µM; with HS 578T breast, 64.5 µM; in the assay on HOP-62 NSCLC it was 82.9 µM. In addition, the TGI came to 78 µM with NCI-H226 lung, 78.3 µM in the assay on U251 CNS, 43.5 µM in the assay on CAKI-1 renal and 59.2 µM in the assay on HL-60(TB) leukemia.
For the molecule `COc1ccc(Cl)cc1NC(=O)O/N=C(\Cl)C(C)C`, the TGI in the assay on COLO 205 colon was determined as 3.5 µM; in the assay on SNB-75 CNS it was 38.7 µM; in the assay on HCT-116 colon it was 45.5 µM; in the assay on KM12 colon it was 35.5 µM; in the assay with HS 578T breast it was 69.2 µM; in the assay with HOP-62 NSCLC, 35.2 µM. Besides, the TGI with NCI-H226 lung was 33.2 µM; in the assay with U251 CNS, > 59.4 µM; in the assay on CAKI-1 renal, 3.24 µM; in the assay on HL-60(TB) leukemia it was > 24.5 µM.
For the molecule `O=c1[nH]nc(-c2cccc([N+](=O)[O-])c2)[nH]1`, the TGI in the assay with COLO 205 colon, with SNB-75 CNS, in the assay with HCT-116 colon, in the assay on KM12 colon, in the assay on HS 578T breast and with HOP-62 NSCLC was > 100 µM in each case. The TGI in the assay with NCI-H226 lung, with U251 CNS, in the assay with CAKI-1 renal and in the assay with HL-60(TB) leukemia was > 100 µM throughout.
Consider `CC(C)C(Sc1nc(N)nc2nc[nH]c12)C(=O)O` (stereo not given), for which the TGI with COLO 205 colon, in the assay with SNB-75 CNS, in the assay on HCT-116 colon, in the assay with KM12 colon, in the assay with HS 578T breast and in the assay with HOP-62 NSCLC was > 100 µM throughout. Moreover, the TGI with NCI-H226 lung, in the assay with U251 CNS, in the assay on CAKI-1 renal and with HL-60(TB) leukemia was > 100 µM in each case.
For `COc1cccc(C2c3cc4c(cc3OC(NNS(=O)(=O)c3ccc(C)cc3)C2C)OCO4)c1O` (stereo not given), the TGI was determined as 34.2 µM in the assay on COLO 205 colon; 40.7 µM with SNB-75 CNS; 30.1 µM with HCT-116 colon; 79.2 µM with KM12 colon; 41.6 µM with HS 578T breast; 53 µM with HOP-62 NSCLC. In addition, the TGI was > 100 µM in the assay with NCI-H226 lung, > 100 µM in the assay on U251 CNS, > 100 µM in the assay with CAKI-1 renal and 38.2 µM with HL-60(TB) leukemia.
Regarding `C(/C=C(\Nc1ccccc1)c1ccc2ccccc2c1)=Nc1ccccc1`, the TGI stood at 4.1 µM with COLO 205 colon; 8.39 µM with SNB-75 CNS; 10 µM in the assay with HCT-116 colon; 12.2 µM with KM12 colon; 13.7 µM in the assay with HS 578T breast; 7.05 µM with HOP-62 NSCLC. Also, the TGI in the assay with NCI-H226 lung worked out at 5.64 µM; with U251 CNS, 8.66 µM; in the assay with CAKI-1 renal, 7.22 µM; with HL-60(TB) leukemia, 11.8 µM.
For the molecule `O=C1OCOC2(CCCC2)C1c1ccccc1` (stereo not given), the TGI in the assay with COLO 205 colon, in the assay on SNB-75 CNS, in the assay on HCT-116 colon, with KM12 colon, in the assay with HS 578T breast and in the assay with HOP-62 NSCLC was > 100 µM throughout. Further, the TGI in the assay on NCI-H226 lung, in the assay with U251 CNS, in the assay on CAKI-1 renal and in the assay on HL-60(TB) leukemia was > 100 µM each time.
Regarding `O=C(c1ccccc1)c1nn(-c2cccc(Cl)c2)c2nc3nc(-c4ccccc4)cc(=O)n3nc12`, the GI50 with COLO 205 colon, with SNB-75 CNS, with HCT-116 colon, with KM12 colon, in the assay with HS 578T breast and in the assay with HOP-62 NSCLC was > 25 µM in each case. Also, the GI50 with NCI-H226 lung was > 25 µM; in the assay on U251 CNS it was > 25 µM; in the assay on CAKI-1 renal, > 25 µM; in the assay on HL-60(TB) leukemia, 5.1 µM. In addition, the TGI with COLO 205 colon, with SNB-75 CNS, in the assay with HCT-116 colon, in the assay on KM12 colon, in the assay on HS 578T breast and in the assay with HOP-62 NSCLC was > 25 µM in each case. The TGI with NCI-H226 lung was > 25 µM; in the assay with U251 CNS it was > 25 µM; in the assay on CAKI-1 renal it was > 25 µM; in the assay with HL-60(TB) leukemia it was 16.7 µM.
